Results on 40 compounds are retold here after patent US8354419B2, “Benzimidazole analogues for the treatment or prevention of flavivirus infections” (Vertex Pharmaceuticals Incorporated, priority 2009, dated 2013).

The structures appear in SMILES notation.

One test concerns HCV (Ib) RNA replication. As to the kind of experiment: Cell-based luciferase reporter HCV (1b) RNA replication assay (replicon cell lines Huh-7 5.2 and ET). Also noted: species or system Hepatitis C virus. As to conditions: HCV 1b genotype replicon, luciferase readout, 4 days incubation; read-out: EC50_1b. In outline: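 Huh-7-derived 5.2 or ET replicon cells carrying a firefly luciferase reporter were seeded at ~3000 cells/well in medium without G418 or phenol red. Compound was added after 3-4 h, followed by 4 days at 37 °C. Luciferase readout was used, with IC50 fitted by nonlinear regression from eleven concentrations in duplicate.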
With `COC(=O)NC(C(=O)N1CCCC1c1nc2cc(-c3ccc(-c4ccc5nc(C6CCCN6C(=O)C(NC(=O)OC)C(C)(C)C)[nH]c5c4)cc3)ccc2[nH]1)C(C)(C)C` (stereo not shown) [Compound 193], the EC50 lay within 5 to 5000 nM.

Consider `COC(=O)NC(C(=O)N1CCC[C@H]1c1nc2ccc(-c3ccc(-c4ccc5nc([C@@H]6CCCN6C(=O)[C@@H](NC(=O)OC)C(C)C)[nH]c5c4)cc3)cc2[nH]1)C(C)(C)C` (stereo partly shown) [Compound 212], for which the EC50 was at most 5 nM.

The test is the same for the next values; noted with them: Hepatitis C virus, Huh-7, 96 h, HCV 1b genotype replicon, luciferase readout, 4 days incubation; read-out: EC50_1b.
Regarding `[2H]C1([2H])Oc2c(-c3ccc4[nH]c([C@@H]5CCCN5C(=O)[C@@H](NC(=O)OC)C(C)C)nc4c3)ccc(-c3ccc4[nH]c([C@@H]5CCCN5C(=O)[C@@H](NC(=O)OC)C(C)C)nc4c3)c2O1` [Compound 194], the EC50 was at most 5 nM.

For the compound `COC(=O)N[C@H](CN1CCC[C@H]1c1nc2cc(-c3ccc(-c4ccc5[nH]c([C@@H]6CCCN6C[C@@H](NC(=O)OC)C(C)C)nc5c4)cc3)ccc2[nH]1)C(C)C` [Compound 195], the EC50 was in the range of 5 to 5000 nM.

In the case of `COCC(=O)N[C@H](C(=O)N1CCC[C@H]1c1nc2ccc(-c3ccc(-c4ccc5nc([C@@H]6CCCN6C(=O)[C@@H](NC(=O)COC)C(C)C)[nH]c5c4)cc3)cc2[nH]1)C(C)C` [Compound 196], the EC50 fell in the range of 5 to 5000 nM.

As to `CC(C)[C@H](N)C(=O)N1CCC[C@H]1c1nc2ccc(-c3ccc(-c4ccc5nc([C@@H]6CCCN6C(=O)[C@@H](N)C(C)C)[nH]c5c4)cc3)cc2[nH]1` [Compound 197], the EC50 lay in the range of 5 to 5000 nM.

With `COC(=O)N[C@H](C(=O)N1CCC[C@H]1c1nc2cc(-c3ccc(-c4ccc5nc([C@@H]6CCCN6C(=O)[C@@H](NC(=O)OC)C(C)C)[nH]c5c4)cc3C(=O)O)ccc2[nH]1)C(C)C` [Compound 198], the EC50 is at most 5 nM.

Regarding `COC(=O)N[C@H](C(=O)N1CCC[C@H]1c1nc2cc(-c3cc4sc(-c5ccc6nc([C@@H]7CCCN7C(=O)[C@@H](NC(=O)OC)[C@@H](C)OC)[nH]c6c5)cc4s3)ccc2[nH]1)[C@@H](C)OC` [Compound 199], the EC50 was at most 5 nM.

Take `COC(=O)N[C@H](C(=O)N1CCC[C@H]1c1nc2ccc(-c3cnc(-c4ccc5nc([C@@H]6CCCN6C(=O)[C@@H](NC(=O)OC)C(C)C)[nH]c5c4)n3C)cc2[nH]1)C(C)C` [Compound 200]: the EC50 lay within 5 to 5000 nM.

With `COC(=O)NC(C(=O)N1CCC[C@H]1c1nc2ccc(-c3cnc(-c4cnc(-c5ccc6nc([C@@H]7CCCN7C(=O)[C@@H](NC(=O)OC)C(C)C)[nH]c6c5)n4C)n3C)cc2[nH]1)C(C)C` (stereo partly shown) [Compound 201], the EC50 is at most 5 nM.

Turning to `COC(=O)N[C@H](C(=O)N1CCC[C@H]1c1nc2cc(-c3c[nH]c(-c4ccc5nc([C@@H]6CCCN6C(=O)[C@@H](NC(=O)OC)C(C)C)[nH]c5c4)n3)ccc2[nH]1)C(C)C` [Compound 202], the EC50 was in the range of 5 to 5000 nM.

Take `COC(=O)N[C@@H](Cc1cncn1C)C(=O)N1CCC[C@H]1c1nc2cc(-c3ccc(-c4ccc5[nH]c([C@@H]6CCCN6C(=O)[C@@H](NC(=O)OC)C(C)C)nc5c4)cc3)ccc2[nH]1` [Compound 203]: the EC50 is at most 5 nM.

On to `COC(=O)N[C@H](C(=O)N1CCC[C@H]1c1nc2cc(C#Cc3ccc4[nH]c([C@@H]5CCCN5C(=O)[C@@H](NC(=O)OC)[C@@H](C)OC)nc4c3)ccc2[nH]1)[C@@H](C)OC` [Compound 206], for which the EC50 was at most 5 nM.

Consider `COC(=O)N[C@H](C(=O)N1CCC[C@H]1c1nc2cc(-c3ccc(-c4ccc5[nH]c([C@@H]6CCCN6C(=O)[C@@H](NC(=O)OC)[C@@H](C)OC)nc5c4)c(C)c3)ccc2[nH]1)[C@@H](C)OC` [Compound 207], for which the EC50 was at most 5 nM.

Turning to `COC(=O)N[C@H](C(=O)N1CCC[C@H]1c1nc2cc(-c3ccc(-c4ccc5[nH]c([C@@H]6CCCN6C(=O)[C@@H](NC(=O)OC)[C@@H](C)OC)nc5c4)cc3)ccc2[nH]1)C(C)C` [Compound 208], the EC50 was at most 5 nM.

In the case of `CC(C)[C@H](O)C(=O)N1CCC[C@H]1c1nc2cc(-c3ccc(-c4ccc5nc([C@@H]6CCCN6C(=O)[C@@H](O)C(C)C)[nH]c5c4)c4c3OCO4)ccc2[nH]1` [Compound 209], the EC50 fell in the range of 5 to 5000 nM.

As to `O=C(OCc1ccccc1)N1CCC[C@H]1c1nc2ccc(N3CCN(c4ccc5nc([C@@H]6CCCN6C(=O)OCc6ccccc6)[nH]c5c4)CC3)cc2[nH]1` [Compound 210], the EC50 is 5 to 5000 nM.

With `COC(=O)NC(C(=O)N1CCC[C@H]1c1nc2ccc(-c3ccc(-c4ccc5nc([C@@H]6CCCN6C(=O)[C@@H](NC(=O)OC)C(C)C)[nH]c5c4)cc3)cc2[nH]1)C(C)(C)C` (stereo partly shown) [Compound 211], the EC50 was at most 5 nM.

Regarding `CCc1cc(-c2ccc3[nH]c([C@@H]4CCCN4C(=O)[C@@H](NC(=O)OC)C(C)C)nc3c2)ccc1-c1ccc2[nH]c([C@@H]3CCCN3C(=O)[C@@H](NC(=O)OC)C(C)C)nc2c1` [Compound 213], the EC50 was at most 5 nM.

Regarding `COC(=O)N[C@H](C(=O)N1CCC[C@H]1c1nc2cc(-c3nc(C)c(-c4ccc5[nH]c([C@@H]6CCCN6C(=O)[C@@H](NC(=O)OC)C(C)C)nc5c4)s3)ccc2[nH]1)C(C)C` [Compound 214], the EC50 was at most 5 nM.

For the compound `CC[C@@H](C(=O)N1CCC[C@H]1c1nc2cc(-c3ccc(-c4ccc5nc([C@@H]6CCCN6C(=O)[C@H](CC)N(C)C(=O)OC)[nH]c5c4)c4c3OCO4)ccc2[nH]1)N(C)C(=O)OC` [Compound 215], the EC50 is at most 5 nM.

Take `COC(=O)N[C@H](C(=O)N1CCC[C@H]1c1nc2cc(-c3ccc(-c4ccc5nc([C@@H]6CCCN6C(=O)CCCC[C@@H]6SC[C@@H]7NC(=O)N[C@@H]76)[nH]c5c4)cc3)ccc2[nH]1)C(C)C` [Compound 216]: the EC50 was at most 5 nM.

Consider `COC(=O)N[C@H](C(=O)N1CCCC1c1nc2cc(-c3ccc(-c4ccc(-c5ccc6[nH]c(C7CCCN7C(=O)[C@@H](NC(=O)OC)C(C)C)nc6c5)s4)s3)ccc2[nH]1)C(C)C` (stereo partly shown) [Compound 217], for which the EC50 is at most 5 nM.

For `COCc1cc(-c2ccc3[nH]c([C@@H]4CCCN4C(=O)[C@@H](NC(=O)OC)C(C)C)nc3c2)c(COC)cc1-c1ccc2[nH]c([C@@H]3CCCN3C(=O)[C@@H](NC(=O)OC)C(C)C)nc2c1` [Compound 218], the EC50 is at most 5 nM.

On to `COC(=O)N[C@H](C(=O)N1CCC[C@H]1c1nc2cc(-c3ccc(-c4ccc5nc([C@@H]6CCCN6C(=O)[C@@H](NC(=O)OC)C(C)(C)O)[nH]c5c4)c4c3OCO4)ccc2[nH]1)C(C)(C)O` [Compound 219], for which the EC50 is at most 5 nM.

As to `COC(=O)N[C@H](C(=O)N1CCC[C@H]1c1nc2cc(-c3ccc(-c4ccc5nc([C@@H]6CCCN6C(=O)[C@@H](NC(=O)OC)C(C)C)[nH]c5c4)cc3CF)ccc2[nH]1)C(C)C` [Compound 220], the EC50 was at most 5 nM.

With `COC(=O)N[C@H](C(=O)N1CCC[C@H]1c1nc2cc(-c3ccc(-c4ccc5[nH]c([C@@H]6CCCN6C(=O)[C@@H](NC(=O)OC)C(C)C)nc5c4)c4c3OC(F)(F)O4)ccc2[nH]1)C(C)C` [Compound 221], the EC50 is at most 5 nM.

Regarding `COC(=O)N[C@H](C(=O)N1C[C@@H](OC)C[C@H]1c1nc2cc(-c3ccc(-c4ccc5[nH]c([C@@H]6C[C@H](OC)CN6C(=O)[C@@H](NC(=O)OC)C(C)C)nc5c4)cc3)ccc2[nH]1)C(C)C` [Compound 222], the EC50 was at most 5 nM.

As to `Cn1c([C@@H]2CCCN2C(=O)OC(C)(C)C)nc2cc(-c3ccc(-c4ccc5c(c4)nc([C@@H]4CCCN4C(=O)OC(C)(C)C)n5C)cc3)ccc21` [Compound 225], the EC50 was above 5000 nM.

As to `Cn1c([C@@H]2CCCN2C(=O)OC(C)(C)C)nc2cc(-c3ccc(-c4ccc5[nH]c([C@@H]6CCCN6C(=O)OC(C)(C)C)nc5c4)cc3)ccc21` [Compound 226], the EC50 lay in the range of 5 to 5000 nM.

Consider `Cn1c([C@@H]2CCCN2)nc2cc(-c3ccc(-c4ccc5c(c4)nc([C@@H]4CCCN4)n5C)cc3)ccc21` [Compound 227], for which the EC50 was above 5000 nM.

As for `Cn1c([C@@H]2CCCN2)nc2cc(-c3ccc(-c4ccc5[nH]c([C@@H]6CCCN6)nc5c4)cc3)ccc21` [Compound 228], the EC50 was above 5000 nM.

Take `COC(=O)N[C@H](C(=O)N1CCC[C@H]1c1nc2ccc(N3CCN(c4ccc5nc([C@@H]6CCCN6C(=O)[C@@H](NC(=O)OC)C(C)C)[nH]c5c4)CC3)cc2[nH]1)C(C)C` [Compound 229]: the EC50 is at most 5 nM.

For `O=C1O[C@@H]2C[C@@H]3C[C@@H]2[C@@H]1[C@H]3C(=O)N1CCC[C@H]1c1nc2cc(-c3ccc(-c4ccc5[nH]c([C@@H]6CCCN6C(=O)[C@H]6[C@H]7C[C@@H]8[C@H]6C(=O)O[C@@H]8C7)nc5c4)cc3)ccc2[nH]1` [Compound 230], the EC50 fell in the range of 5 to 5000 nM.

Turning to `COC(=O)N[C@H](C(=O)N1CCC[C@H]1c1nc2cc(-c3ccc(-c4ccc5c(c4)nc([C@@H]4CCCN4C(=O)[C@@H](NC(=O)OC)C(C)C)n5C)cc3)ccc2n1C)C(C)C` [Compound 231], the EC50 is above 5000 nM.

On to `COC(=O)N[C@H](C(=O)N1CCC[C@H]1c1nc2cc(-c3ccc(-c4ccc5c(c4)nc([C@@H]4CCCN4C(=O)[C@@H](NC(=O)OC)C(C)C)n5C)cc3)ccc2[nH]1)C(C)C` [Compound 232], for which the EC50 is at most 5 nM.

`COC(=O)N[C@H](C(=O)N1C[C@@H](C)C[C@H]1c1nc2cc(-c3cc4sc(-c5ccc6[nH]c([C@@H]7C[C@H](C)CN7C(=O)[C@@H](NC(=O)OC)C(C)C)nc6c5)cc4s3)ccc2[nH]1)C(C)C` [Compound 233]: the EC50 was at most 5 nM.

As for `COC(=O)N[C@H](C(=O)N1[C@H](c2nc3cc(-c4ccc(-c5ccc6[nH]c([C@@H]7C[C@@H]8C[C@@H]8N7C(=O)[C@@H](NC(=O)OC)C(C)C)nc6c5)cc4)ccc3[nH]2)C[C@@H]2C[C@@H]21)C(C)C` [Compound 234], the EC50 was at most 5 nM.

On to `COC(=O)N[C@H](C(=O)N1CC[C@@H](O)[C@H]1c1nc2ccc(-c3ccc(-c4ccc5nc([C@@H]6[C@H](O)CCN6C(=O)[C@@H](NC(=O)OC)C(C)C)[nH]c5c4)cc3)cc2[nH]1)C(C)C` [Compound 235], for which the EC50 was at most 5 nM.

As to `COC(=O)N[C@H](C(=O)N1CCC[C@H]1c1nc2ccc(-c3coc(-c4ccc5nc([C@@H]6CCCN6C(=O)[C@@H](NC(=O)OC)C(C)C)[nH]c5c4)n3)cc2[nH]1)C(C)C` [Compound 236], the EC50 was at most 5 nM.
